From patent publication US20040132648A1, “Remedies and/or preventives for conformational diseases” (priority 2001, published 2004)
Square brackets hold non-standard residues; d marks the D form. Nle = CCCC[C@H](N)C(=O)O

system: PC12 cells; assay: Neuroprotective action against β-amyloid, viable cell count / survival rate by WST-8 method; assay type: cell-based, rat; set-up: key to Neuroprotective action: +, P < 0.05 when compared with the no neuropeptide-added group; details: not given
Method: An experiment was performed similarly to Example 5, and then the neuroprotective action against cell death by β-amyloid of the following PACAP-related neuropeptides (peptides 1, 2, 4, 5, 7, 8, 15, 16, 17, 19, 21, 26, 27, 28, 29, 30, 31, 32, 33, 34, 35, 36, 37, 38 and 39) and VIP-related neuropeptides (peptides 3, 9, 10, 11, 12, 13, 14, 18, 20, 22, 23, 24 and 25) was confirmed. Specifically, amyloid (50 μM) and each of the various PACAP-related neuropeptides and VIP-related neuropeptides were added to the cultured PC12 cells. The number of […] calculated by the WST-8 method, so that comparison and examination was performed for the neuroprotective action of these various peptides against amyloid. If the neuropeptides had neuroprotective action, a clear difference in viable cell count can be observed between cases in which neuropeptides were added and cases in which neuropeptides were not added. In PC12 cells added with each of the various neuropeptides, a case wherein a higher cell survival rate (P<0.05) was observed compared with groups in which neuropeptides had not been added, was determined as having neuroprotective action. The results are shown in Table 1 and Table 2. β-amyloid was added to PC12 cells that had been cultured similarly to Example 5. At this time, neuropeptides PACAP27, VIP and humanin, and a cell-permeable cAMP derivative were allowed to respectively co-exist, so that the effect of these neuropeptides against cell death by β-amyloid was confirmed. Cell death was examined by evaluating cell count using the WST-8 method, and then by calculating cell survival rate. […] In the presence of β-amyloid, approximately 70% of the cells died. […] The neuroprotective action of humanin, a recently found human-derived neuroprotective substance (Proc Natl Acad Sci USA (2001) 98 (11) 6336-6341), was also examined. […] At this time, neuropeptides at various concentrations were allowed to co-exist, so that the relationship between the neuroprotective action and the concentration was investigated. Cells were calculated by the WST-8 method, and then the extent to which cell death by β-amyloid could be attenuated was expressed numerically.

Substance	Neuroprotective action
PACAP38 [Peptide 1]	+

same assay, conditions: PACAP-related neuropeptide 10^−9 M; amyloid (50 μM); cell survival rate vs no peptide

Substance	Neuroprotective action
Arg-PACAP27 (H-HSDGIFTDSYSRYRRQLAVRRYLAAVL-NH2; ends and bridges not checked) [Peptide 6]	+
Arg-PACAP38 (H-HSDGIFTDSYSRYRRQLAVRRYLAAVLGRRYRQRVRNR-NH2; ends and bridges not checked) [Peptide 4]	+
PACAP27 (H-HSDGIFTDSYSRYRKQMAVKKYLAAVL-NH2; ends and bridges not checked) [Peptide 2]	+
PACAP27 highly basic derivative A (H-HSDGIFTDSYSRYRRQLAVRRYLAAVLGK-NH2; ends and bridges not checked) [Peptide 15]	+
PACAP27 highly basic derivative B (H-HSDGIFTDSYSRYRRQLAVRRYLAAVLGKR-NH2; ends and bridges not checked) [Peptide 16]	+
PACAP27 highly basic derivative C (H-HSDGIFTDSYSRYRRQLAVRRYLAAVLGRR-NH2; ends and bridges not checked) [Peptide 17]	+
PACAP long form (PACAP28) (H-HSDGIFTDSYSRYRKQMAVKKYLAAVLG-NH2; ends and bridges not checked) [Peptide 29]	+
PACAP long form (PACAP29) (H-HSDGIFTDSYSRYRKQMAVKKYLAAVLGK-NH2; ends and bridges not checked) [Peptide 30]	+
PACAP long form (PACAP30) (H-HSDGIFTDSYSRYRKQMAVKKYLAAVLGKR-NH2; ends and bridges not checked) [Peptide 31]	+
PACAP long form (PACAP31) (H-HSDGIFTDSYSRYRKQMAVKKYLAAVLGKRY-NH2; ends and bridges not checked) [Peptide 32]	+
PACAP long form (PACAP32) (H-HSDGIFTDSYSRYRKQMAVKKYLAAVLGKRYK-NH2; ends and bridges not checked) [Peptide 33]	+
PACAP long form (PACAP33) (H-HSDGIFTDSYSRYRKQMAVKKYLAAVLGKRYKQ-NH2; ends and bridges not checked) [Peptide 34]	+
PACAP long form (PACAP34) (H-HSDGIFTDSYSRYRKQMAVKKYLAAVLGKRYKQR-NH2; ends and bridges not checked) [Peptide 35]	+
PACAP long form (PACAP35) (H-HSDGIFTDSYSRYRKQMAVKKYLAAVLGKRYKQRV-NH2; ends and bridges not checked) [Peptide 36]	+
PACAP long form (PACAP36) (H-HSDGIFTDSYSRYRKQMAVKKYLAAVLGKRYKQRVK-NH2; ends and bridges not checked) [Peptide 37]	+
PACAP long form (PACAP37) (H-HSDGIFTDSYSRYRKQMAVKKYLAAVLGKRYKQRVKN-NH2; ends and bridges not checked) [Peptide 38]	+
PACAP short form (H-HSDGIFTDSYSRYRKQMAVKKYL-NH2; ends and bridges not checked) [Peptide 19]	+
PACAP short form (PACAP24) (H-HSDGIFTDSYSRYRKQMAVKKYLA-NH2; ends and bridges not checked) [Peptide 26]	+
PACAP short form (PACAP25) (H-HSDGIFTDSYSRYRKQMAVKKYLAA-NH2; ends and bridges not checked) [Peptide 27]	+
PACAP short form (PACAP26) (H-HSDGIFTDSYSRYRKQMAVKKYLAAV-NH2; ends and bridges not checked) [Peptide 28]	+
PACAP-like-peptide (stargazer-PACAP) (H-HSDGIFTDSYSRYRKQMAVQKYLAAVLGRRYRQRVRNK-NH2; ends and bridges not checked) [Peptide 5]	+
PACAP-like-peptide (stingray-PACAP) (H-HSDGIFTDSYSRYRKQMAVKKYLAAVLGKRYKPKRRNSGRRVFY-NH2; ends and bridges not checked) [Peptide 21]	+
[A^4, V^5, N^9]-PACAP27 [Peptide 8]	+
[A^4, V^5]-PACAP27 (H-HSDAVFTDSYSRYRKQMAVKKYLAAVL-NH2; ends and bridges not checked) [Peptide 7]	+

same assay, conditions: VIP-related neuropeptide 10^−7 M; amyloid (50 μM); cell survival rate vs no peptide

Substance	Neuroprotective action
VIP highly basic derivative A (HSDAVFTDNYTRLRRQLAVRRYLNSILNGK) [Peptide 11]	+
VIP highly basic derivative B (HSDAVFTDNYTRLRRQLAVRRYLNSILNGKR) [Peptide 12]	+
VIP highly basic derivative C (HSDAVFTDNYTRLRRQLAVRRYLNSILNGRR) [Peptide 13]	+
VIP short form (HSDAVFTDNYTRLRKQMAVKKYL) [Peptide 20]	+
VIP short form (VIP24) (HSDAVFTDNYTRLRKQMAVKKYLN) [Peptide 22]	+
VIP short form (VIP25) (HSDAVFTDNYTRLRKQMAVKKYLNS) [Peptide 23]	+
VIP short form (VIP26) (HSDAVFTDNYTRLRKQMAVKKYLNSI) [Peptide 24]	+
VIP short form (VIP27) (HSDAVFTDNYTRLRKQMAVKKYLNSIL) [Peptide 25]	+
VIP/PACAP highly basic chimera peptide (H-HSDAVFTDNYTRLRRQ[Nle]AVRRYLNSILNGRRYRQRVRNR-NH2; ends and bridges not checked) [Peptide 18]	+
[G^4, I^5, S^9]-VIP (H-HSDGIFTDSYTRLRKQMAVKKYLNSILN-NH2; ends and bridges not checked) [Peptide 10]	+
[G^4, I^5]-VIP (H-HSDGIFTDNYTRLRKQMAVKKYLNSILN-NH2; ends and bridges not checked) [Peptide 9]	+

same assay, conditions: co-existing with β-amyloid; PACAP27 10^−9 M; FIG. 5

Substance	neuroprotective action against cell death by β-amyloid (cell survival rate)
PACAP27 (H-HSDGIFTDSYSRYRKQMAVKKYLAAVL-NH2; ends and bridges not checked) [Peptide 2]	distinctly strong neuroprotective action
humanin (MAPRGFSCLLLLTSEIDLPVKRRA; Humanin; UniProt Q8IVG9 1-24, looked up) [a recently found human-derived neuroprotective substance, reference compound]	showed neuroprotective action, although the effect was also weaker than that of PACAP27

system: PC12 cells; assay: Cell death by β-amyloid monitored by lactate dehydrogenase release; assay type: cell-based, rat; details: β-amyloid 10^−5M; PACAP27 10^−9M; over time; 0.2 μM insulin-containing serum-free DMEM; FIG. 4

Substance	neuroprotective action against cell death by β-amyloid (lactate dehydrogenase released into media)
PACAP27 (H-HSDGIFTDSYSRYRKQMAVKKYLAAVL-NH2; ends and bridges not checked) [Peptide 2]	cell death was very strongly suppressed
